The supplement of paper PMC8617591

Assays:
[1] = test system: Mycobacterium tuberculosis Erdman (autoluminescent); assay: GRinf, maximum normalised growth rate inhibition (three-drug combination) (unitless (-1 to 1)); higher = less effect (negative = killing)
Description: (§1)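 DiaMOND equipotent three-drug combination dose responses (10 doses, 1.5- or 2-fold spacing, centred on IC90) against autoluminescent M. tuberculosis Erdman in 8 in vitro models. Read-out is OD600, or luminescence for the intracellular and dormancy models, normalised to untreated wells. Hill-fit Einf, AUC25 and GRinf are potency metrics; FIC50 and FIC90 are total Loewe fractional inhibitory concentrations as log2 (negative = synergy).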

[2] = test system: Mycobacterium tuberculosis Erdman (autoluminescent); assay: AUC25, normalised area under dose response up to IC25 (three-drug combination) (fraction (0-1)); higher = more potent at low dose
Description: as §1

[3] = test system: Mycobacterium tuberculosis Erdman (autoluminescent); assay: Einf, fitted maximum growth inhibition of three-drug combination (fraction); higher = stronger maximal inhibition
Description: as §1

[4] = test system: Mycobacterium tuberculosis Erdman (autoluminescent); assay: total FIC50 (Loewe) at 50% inhibition, three-drug combination (log2); higher = more antagonistic
Description: as §1

[5] = test system: Mycobacterium tuberculosis Erdman (autoluminescent); assay: total FIC90 (Loewe) at 90% inhibition, three-drug combination (log2); higher = more antagonistic
Description: as §1

CC(C)/N=c1\cc2n(-c3ccc(Cl)cc3)c3ccccc3nc-2cc1Nc1ccc(Cl)cc1 [clofazimine] + NC(=O)c1cnccn1 [pyrazinamide] + CO[C@H]1/C=C/O[C@@]2(C)Oc3c(C)c(O)c4c(O)c(c(/C=N/N5CCN(C)CC5)c(O)c4c3C2=O)NC(=O)/C(C)=C\C=C\[C@H](C)[C@H](O)[C@@H](C)[C@@H](O)[C@@H](C)[C@H](OC(C)=O)[C@@H]1C [rifampicin]
Settings	AUC25, [2]	Einf, [3]	GRinf, [1]	total FIC50, [4]	total FIC90, [5]
in vitro model: acidic pH 5.7, time point: constant (~7 days, model-specific)	0.0832	0.905	-0.142	-0.249	–
in vitro model: acidic pH 5.7, time point: terminal (~4-5 doublings, model-specific)	0.0739	0.988	-0.217	-0.174	-0.451
in vitro model: intracellular J774, time point: constant = terminal	–	0.995	-0.387	–	-0.136

Settings	AUC25, [2]	Einf, [3]	GRinf, [1]	total FIC50, [4]	total FIC90, [5]
in vitro model: butyrate, time point: constant (~7 days, model-specific)	0.115	0.918	-0.091	0.234	0.505
in vitro model: butyrate, time point: terminal (~4-5 doublings, model-specific)	0.0935	0.967	-0.0615	0.0552	0.0714
in vitro model: cholesterol 0.05 mM, time point: constant (~7 days, model-specific)	0.122	0.657	-0.00769	–	–
in vitro model: cholesterol 0.05 mM, time point: terminal (~4-5 doublings, model-specific)	0.106	0.894	-0.15	1.2	–
in vitro model: cholesterol-high 0.2 mM, time point: constant (~7 days, model-specific)	0.113	0.864	-0.605	1.06	–
in vitro model: cholesterol-high 0.2 mM, time point: terminal (~4-5 doublings, model-specific)	0.107	1	-0.764	1.43	1.53
in vitro model: dormancy (butyrate + nitrate, low O2), time point: constant (~7 days, model-specific)	0.0887	0.949	0.12	-0.433	-1.62
in vitro model: dormancy (butyrate + nitrate, low O2), time point: terminal (~4-5 doublings, model-specific)	0.0801	0.994	-0.455	-0.413	0.318
in vitro model: standard 7H9 glycerol, time point: constant = terminal	0.114	0.935	0.0256	-0.361	–
in vitro model: valerate, time point: constant (~7 days, model-specific)	0.106	0.813	0.205	0.653	–
in vitro model: valerate, time point: terminal (~4-5 doublings, model-specific)	0.0497	0.896	0.165	0.53	1.88

CC(C)/N=c1\cc2n(-c3ccc(Cl)cc3)c3ccccc3nc-2cc1Nc1ccc(Cl)cc1 [clofazimine] + NNC(=O)c1ccncc1 [isoniazid] + CC(=O)NC[C@H]1CN(c2ccc(N3CCOCC3)c(F)c2)C(=O)O1 [linezolid]
Settings	AUC25, [2]	Einf, [3]	GRinf, [1]	total FIC50, [4]	total FIC90, [5]
in vitro model: acidic pH 5.7, time point: constant (~7 days, model-specific)	0.0908	0.806	-0.134	0.331	–
in vitro model: acidic pH 5.7, time point: terminal (~4-5 doublings, model-specific)	0.0672	0.939	-0.192	0.773	-0.102
in vitro model: intracellular J774, time point: constant = terminal	–	0.833	0.168	–	0.492

Settings	AUC25, [2]	Einf, [3]	GRinf, [1]	total FIC50, [4]	total FIC90, [5]
in vitro model: butyrate, time point: constant (~7 days, model-specific)	0.113	0.954	-0.181	0.73	1.87
in vitro model: butyrate, time point: terminal (~4-5 doublings, model-specific)	0.0763	0.977	-0.106	0.921	1.01
in vitro model: cholesterol 0.05 mM, time point: constant (~7 days, model-specific)	0.133	0.689	-0.0122	-0.374	–
in vitro model: cholesterol 0.05 mM, time point: terminal (~4-5 doublings, model-specific)	0.141	0.902	-0.198	4.56	0.951
in vitro model: cholesterol-high 0.2 mM, time point: constant (~7 days, model-specific)	0.124	0.934	-0.48	0.36	1.56
in vitro model: cholesterol-high 0.2 mM, time point: terminal (~4-5 doublings, model-specific)	0.109	1	-0.827	0.186	0.424
in vitro model: dormancy (butyrate + nitrate, low O2), time point: constant (~7 days, model-specific)	0.0763	0.914	0.0823	1.56	1.18
in vitro model: dormancy (butyrate + nitrate, low O2), time point: terminal (~4-5 doublings, model-specific)	0.0355	0.972	-0.074	1.16	0.734
in vitro model: standard 7H9 glycerol, time point: constant = terminal	0.126	0.959	-0.237	0.207	0.757
in vitro model: valerate, time point: constant (~7 days, model-specific)	0.128	0.885	-0.0388	0.318	–
in vitro model: valerate, time point: terminal (~4-5 doublings, model-specific)	0.0875	0.934	0.0843	0.0839	1.21

CC(C)/N=c1\cc2n(-c3ccc(Cl)cc3)c3ccccc3nc-2cc1Nc1ccc(Cl)cc1 [clofazimine] + NNC(=O)c1ccncc1 [isoniazid] + CO[C@H]1/C=C/O[C@@]2(C)Oc3c(C)c(O)c4c(O)c(c(/C=N/N5CCN(C6CCCC6)CC5)c(O)c4c3C2=O)NC(=O)/C(C)=C\C=C\[C@H](C)[C@H](O)[C@@H](C)[C@@H](O)[C@@H](C)[C@H](OC(C)=O)[C@@H]1C [rifapentine]
Settings	AUC25, [2]	Einf, [3]	GRinf, [1]	total FIC50, [4]	total FIC90, [5]
in vitro model: acidic pH 5.7, time point: constant (~7 days, model-specific)	0.0883	0.85	-0.0449	0.415	–
in vitro model: acidic pH 5.7, time point: terminal (~4-5 doublings, model-specific)	0.09	0.989	-0.185	0.259	0.468
in vitro model: intracellular J774, time point: constant = terminal	–	0.954	-0.131	–	0.169

Settings	AUC25, [2]	Einf, [3]	GRinf, [1]	total FIC50, [4]	total FIC90, [5]
in vitro model: butyrate, time point: constant (~7 days, model-specific)	0.0986	0.951	-0.088	0.508	0.999
in vitro model: butyrate, time point: terminal (~4-5 doublings, model-specific)	0.0792	0.98	-0.0855	0.521	0.588
in vitro model: cholesterol 0.05 mM, time point: constant (~7 days, model-specific)	0.118	0.666	0.0951	0.541	–
in vitro model: cholesterol 0.05 mM, time point: terminal (~4-5 doublings, model-specific)	0.0787	0.8	-0.0213	1.11	1.88
in vitro model: cholesterol-high 0.2 mM, time point: constant (~7 days, model-specific)	0.0889	0.959	-0.471	0.542	–
in vitro model: cholesterol-high 0.2 mM, time point: terminal (~4-5 doublings, model-specific)	0.0744	0.999	-0.743	0.993	0.67
in vitro model: dormancy (butyrate + nitrate, low O2), time point: constant (~7 days, model-specific)	0.0787	0.9	0.166	0.0637	-0.201
in vitro model: dormancy (butyrate + nitrate, low O2), time point: terminal (~4-5 doublings, model-specific)	0.0623	0.989	-0.337	0.174	0.32
in vitro model: standard 7H9 glycerol, time point: constant = terminal	0.111	0.942	-0.0519	0.0163	1.07
in vitro model: valerate, time point: constant (~7 days, model-specific)	0.118	0.858	0.0326	0.882	–
in vitro model: valerate, time point: terminal (~4-5 doublings, model-specific)	0.0644	0.907	0.0296	0.418	-0.138
